Measurements taken from ChEMBL document CHEMBL1201862, “PubChem BioAssay data set” (2004).
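Briefly, cells in 96-well plates were exposed to five compound concentrations for 48 h, and endpoints were estimated by linear interpolation. Abbreviation: GI50, concentration required for 50% inhibition of growth.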 Activity calls are given as the source filed them. No stated cut-off is given here; in the data, active = GI50 up to about 1.1 µM and inactive = higher.

Key:
Assay in all cases: inhibition of tumour cell growth, NCI panel, 48 h
UACC-257 = test system: UACC-257
IGROV-1 = test system: IGROV-1
SK-OV-3 = test system: SK-OV-3
NCI-H226 = test system: NCI-H226
SNB-75 = test system: SNB-75
BT-549 = test system: BT-549
TK-10 = test system: TK-10
CAKI-1 = test system: CAKI-1
CCRF-CEM = test system: CCRF-CEM
NCI/ADR-RES = test system: NCI/ADR-RES
Hs-578T = test system: Hs-578T
K562 = test system: K562
SK-MEL-28 = test system: SK-MEL-28
SF-295 = test system: SF-295
KM12 = test system: KM12
HL-60 = test system: HL-60
RXF 393 = test system: RXF 393
T47D = test system: T47D
HT-29 = test system: HT-29

Structure (SMILES)	GI50 (UACC-257)	GI50 (IGROV-1)	GI50 (SK-OV-3)	GI50 (NCI-H226)	GI50 (SNB-75)	GI50 (BT-549)	GI50 (TK-10)	GI50 (CAKI-1)	GI50 (CCRF-CEM)	GI50 (NCI/ADR-RES)	GI50 (Hs-578T)	GI50 (K562)	GI50 (SK-MEL-28)	GI50 (SF-295)	GI50 (KM12)	GI50 (HL-60)	GI50 (RXF 393)	GI50 (T47D)	GI50 (HT-29)
O=C1CCCc2c1c1c(n2Cc2ccccc2)-c2ccccc2C1=O	17.3 µM (inactive)	18.9 µM (inactive)	18.8 µM (inactive)	21.6 µM (inactive)	62.5 µM (inactive)	22.8 µM (inactive)	10.5 µM (inactive)	21.1 µM (inactive)	31 µM (inactive)	21.1 µM (inactive)	28.7 µM (inactive)	13.9 µM (inactive)	33.3 µM (inactive)	15.7 µM (inactive)	17.9 µM (inactive)	23.9 µM (inactive)	29.9 µM (inactive)	5.93 µM (inactive)	31.1 µM (inactive)
COc1ccc2c(-c3ccc(O)cc3)c(Oc3ccccc3)c(=O)oc2c1	> 100 µM (inactive)	3.78 µM (inactive)	6.49 µM (inactive)	29.9 µM (inactive)	> 33.9 µM (inactive)	95.9 µM (inactive)	3.74 µM (inactive)	2.72 µM (inactive)	3.96 µM (inactive)	14.2 µM (inactive)	> 50 µM (inactive)	8.91 µM (inactive)	96.8 µM (inactive)	25.5 µM (inactive)	14.6 µM (inactive)	7.96 µM (inactive)	11.8 µM (inactive)	> 28 µM (inactive)	11.7 µM (inactive)
COc1cc(S(=O)(=O)Nc2nc(-c3ccc(N4C(=O)/C(=C\c5cccs5)N=C4c4ccccc4)cc3)cs2)ccc1Cl	71.3 µM (inactive)	42.2 µM (inactive)	> 100 µM (inactive)	> 100 µM (inactive)	51.4 µM (inactive)	34.5 µM (inactive)	> 100 µM (inactive)	> 100 µM (inactive)	41 µM (inactive)	> 100 µM (inactive)	24 µM (inactive)	64.9 µM (inactive)	71.6 µM (inactive)	> 100 µM (inactive)	94 µM (inactive)	36.7 µM (inactive)	32.1 µM (inactive)	45.8 µM (inactive)	> 100 µM (inactive)
C[C@]12CCC(=O)C=C1CC[C@@H]1[C@@H]2CC[C@]2(C)C(=O)/C(=C/c3ccc([N+](=O)[O-])cc3)C[C@@H]12	6.59 µM (inactive)	> 100 µM (inactive)	> 100 µM (inactive)	> 100 µM (inactive)	42 µM (inactive)	6.3 µM (inactive)	> 100 µM (inactive)	8.95 µM (inactive)	8.97 µM (inactive)	5.85 µM (inactive)	> 100 µM (inactive)	3.35 µM (inactive)	> 100 µM (inactive)	63.7 µM (inactive)	6.93 µM (inactive)	3.51 µM (inactive)	13.5 µM (inactive)	3.48 µM (inactive)	> 100 µM (inactive)
COCO[C@@H]1C[C@H]2C(=O)N(COC)c3ccccc3C(=O)N2C1	> 100 µM (inactive)	> 100 µM (inactive)	> 100 µM (inactive)	> 100 µM (inactive)	> 100 µM (inactive)	> 100 µM (inactive)	> 100 µM (inactive)	> 100 µM (inactive)	> 100 µM (inactive)	> 100 µM (inactive)	> 100 µM (inactive)		> 100 µM (inactive)	> 100 µM (inactive)	> 100 µM (inactive)	> 100 µM (inactive)	> 100 µM (inactive)	> 100 µM (inactive)	> 100 µM (inactive)
COc1cc2cc(C(=O)N3CC(CCl)c4ccc(N(C)C)cc43)[nH]c2c(OC)c1OC (stereo not drawn)	0.139 µM (active)	0.0601 µM (active)	0.261 µM (active)	0.152 µM (active)	0.29 µM (active)	0.131 µM (active)	0.13 µM (active)	0.0395 µM (active)	0.0547 µM (active)	0.0449 µM (active)	0.294 µM (active)	0.0675 µM (active)	0.0556 µM (active)	0.0589 µM (active)	0.127 µM (active)	0.0277 µM (active)	0.0267 µM (active)	0.078 µM (active)	0.0817 µM (active)
